Consider 20 compounds from patent US20230212164A1, “ANNULATED 2-AMINO-3-CYANO THIOPHENES AND DERIVATIVES FOR THE TREATMENT OF CANCER” (BOEHRINGER INGELHEIM INTERNATIONAL GMBH, priority 2020, published 2023).

One may read the IC50 as the point on the concentration scale where inhibition reaches its midpoint.

Assay [1] relates to pERK (Thr202/Tyr204) in NCI-H358_Cas9_SOS2 (SOS2 knocked). The assay can be described thus: ERK phosphorylation assay 2 (AlphaLISA SureFire Ultra p-ERK1/2). The settings on record: read-out: IC50 H358 pERK, ERK phosphorylation assay 2 (values marked with *). On the technique in general: Alpha assays give light when donor and acceptor beads are brought close together.
Protocol: ERK Phosphorylation Assay
Low IC50 values in this assay setting are indicative of high potency of the compounds according to the invention.
GFP positive cells were collected and further expanded. These GFP-positive cell pools were single-cell diluted and SOS2 knock-out clones were identified via Western-blot and genomic DNA sequencing analysis.
Materials Used for the Assay:
AlphaLISA SureFire Ultra p-ERK1/2 (Thr202/Tyr204) Assay Kit (ALSU-PERK-A500)
Cells are seeded at 40,000 cells per well in /60 μL of RPMI with 10% FBS, non-essential amino acids, pyruvate and glutamax in Greiner TC 384 plates. The cells are incubated for 1 h at room temperature and then incubated overnight in an incubator at 37° C. and 5% CO2 in a humidified atmosphere. 60 nL compound solution (10 mM DMSO stock solution) is then added using a Labcyte Echo 550 device. After a 1 h incubation in the aforementioned incubator the medium is removed after centrifugation and the cells lysed by addition of 20 μL of 1.6-fold lysis buffer from the AlphaLISA SureFire Ultra pERK1/2 (Thr202/Tyr204) Assay Kit with added protease inhibitors, 100 nM trametinib+100 nM staurosporine. After 20 minutes of incubation at room temperature with shaking, 6 μL of each lysate sample is transferred to a 384-well Proxiplate and analyzed for pERK (Thr202/Tyr204) with the AlphaLISA SureFire Ultra pERK1/2 (Thr202/Tyr204) Assay Kit. 3 μL Acceptor Mix and 3 μL Donor Mix are added under subdued light and incubated for 2 h at room temperature in the dark, before the signal is measured on a PerkinElmer Envision HTS Multilabel Reader. The raw data were imported into and analyzed with the Boehringer Ingelheim proprietary software MegaLab (curve fitting based on the program PRISM, GraphPad Inc.).
Assay [2] concerns the target T1, protein-protein interaction between SOS1 and KRAS G12C (Homo sapiens, UniProt P01116, C118S/C51S/C80L/G12C).
T1 construct: His6 (N)
The experiment in a line: KRAS::SOS1 AlphaScreen binding assay.

Another assay relates to MiaPaCa-2 cells. The assay can be described thus: MiaPaCa-2 CTG proliferation assay (pancreatic cancer). The settings on record: Homo sapiens, MIA PaCa-2, 120 h, 5 days, read-out: IC50 MiaPACA2. The class given is cell-based. On the procedure:
(§1) The proliferation assays started (day1) with seeding cells in flat bottom 384 well microtiter plates in 90 μL DMEM medium supplemented with 10% FBS at a density of 500 cells/well. Any other luminescence compatible plate format is possible. On day 2, 10 μL dilutions of the test compounds covering a concentration range between app. 0,1 and 10.000 nM were added to the cells. Cells were incubated for 5 days in a humidified, incubator with 5% CO2 at 37° C. On day 7 100 μl of Cell Titer Glow reagent (Cell titer Glo Luminescent Cat. No. G7571, Promega) were added to each well and incubated for additional 10 min at room temperature (with agitation). Luminescence was measured on a Wallac Victor using standard luminescence read out. IC50 values were calculated using standard Levenburg Marquard algorithms (GraphPad Prism).

For the next assay, the system named is NCI-H358 cells. The assay can be described thus: NCI-H358 CTG proliferation assay (120 h) (NSCLC). The class given is cell-based. The settings on record: Homo sapiens. How it is done: NCI-H358 cells (ATCC No. CRL-5807) were dispensed into white bottom opaque 96 well plates (Perkin Elmer cat no. 5680) at a density of 2000 cells per well in 100 μL RPMI-1640 ATCC-Formulation (Gibco #A10491)+10% FCS. Cells were incubated overnight at 37° C. in a humidified tissue culture incubator at 5% CO2. Compounds (10 mM stock in DMSO) were added at logarithmic dose series using the HP Digital Dispenser D300 (Tecan), normalizing for added DMSO. For the T0 time point measurement, untreated cells were analyzed at the time of compound addition. Plates were incubated for 120 hours, and cell viability was measured using CellTiter-Glo luminescent cell viability reagent (Promega product code G7570). Viability (stated as percent of control) is defined as relative luminescence units RLU of each well divided by the RLU of cells in DMSO controls. IC50 values were determined from viability measurements by non-linear regression using a four parameter model.

Another assay relates to SW837 cells. The experiment in a line: SW 837 CTG proliferation assay (CRC). In kind it is cell-based. The settings on record: Homo sapiens. How it is done:
SW837 cells (ATCC #CCL-235) were grown in cell culture flasks (175 cm^2) using L-15 10% FCS, 1% L-Glu, 1xNEAA and 1× Na-Pyrovat. Cultures were incubated at 37° C. and 0% CO2 in a humidified atmosphere, with medium change or subcultivation 2-3 times a week. Materials used for the assay were CulturPlate-384, White Opaque 384-well Microplate, Sterile and Tissue Culture Treated (Perkin Elmer #6007680), Leibovitz L15 Medium and FBS #SH30071.03 (HyClone).
as §1, with “L-15” for “DMEM medium supplemented with”, “FCS, 1% L-Glu, 1xNEAA and 1×Na-Pyrovat” for “FBS”, “humidified, CO2 controlled (no CO2)” for “humidified,”, “incubator” for “incubator with 5% CO2”, “μL” for “μl”

Assay [3] has as its target KRASG12-dependent Ba/F3 cells (Homo sapiens, UniProt P01116, G12C, cells depend on it). The experiment in a line: Ba/F3 cell model proliferation assay (AlamarBlue, 72 h). In kind it is cell-based. Conditions: Ba/F3 cells transduced with KRASG12C, read-out: IC50 Ba/F3 KRASG12C. A general note: The colour change of resazurin is a common sign of viable cells or microbes.

T1 sequence (P01116 1-169 isoform P01116-2 G12C/C51S/C80L/C118S): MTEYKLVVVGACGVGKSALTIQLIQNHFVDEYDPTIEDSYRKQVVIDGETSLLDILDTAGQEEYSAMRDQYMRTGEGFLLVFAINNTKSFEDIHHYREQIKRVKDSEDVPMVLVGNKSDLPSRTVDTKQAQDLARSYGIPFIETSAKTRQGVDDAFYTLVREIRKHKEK
KRASG12-dependent Ba/F3 cells, sequence (P01116 whole entry G12C): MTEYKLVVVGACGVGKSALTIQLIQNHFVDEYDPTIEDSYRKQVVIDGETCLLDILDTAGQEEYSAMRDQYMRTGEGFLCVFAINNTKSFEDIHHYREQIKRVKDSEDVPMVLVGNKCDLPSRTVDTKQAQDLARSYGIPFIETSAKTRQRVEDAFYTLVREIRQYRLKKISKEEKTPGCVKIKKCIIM

As for `C=CC(=O)N1C[C@H](C)N(c2cc(-c3noc([C@@]4(C)CCCc5sc(N)c(C#N)c54)n3)nc(O[C@@H](C)[C@@H]3CCCN3C)n2)C[C@H]1C` [Ia-133], the IC50 was found to be 28.9 nM in assay [1]; 12 nM in assay [2] (Table 36); 673 nM in the assay with MiaPaCa-2 cells; 41.4 nM with NCI-H358 cells; 71 nM in the assay with SW837 cells. In assay [3], the GI50 worked out at 77.7 nM.
Turning to `C=CC(=O)N1[C@H](C)CN(c2cc(-c3noc([C@@]4(C)CCCc5sc(N)c(C#N)c54)n3)nc(O[C@@H](C)[C@@H]3CCCN3C)n2)C[C@@H]1C` [Ia-64], the IC50 in assay [1] was 3.5 nM; in assay [2] (Table 36), 2.2 nM; in the assay on MiaPaCa-2 cells, 12.1 nM; in the assay with NCI-H358 cells it was 7.42 nM; with SW837 cells, 6.34 nM. Moreover, in assay [3], the GI50 was determined as 12 nM.
For `C=CC(=O)N1[C@@H](C)CN(c2cc(-c3noc([C@@]4(C)CCCc5sc(N)c(C#N)c54)n3)nc(O[C@@H](C)[C@@H]3CCCN3C)n2)C[C@@H]1C` [Ia-62], the IC50 in assay [1] is 1.2 nM; in assay [2] (Table 36) it was 1.6 nM; with MiaPaCa-2 cells, 6.77 nM; in the assay with NCI-H358 cells, 1.01 nM; in the assay with SW837 cells, 0.42 nM. In addition, the GI50 in assay [3] was 1.2 nM.
On to `C=CC(=O)N1CCN(c2nc(=O)n(-c3c(C)ccnc3C(C)C)c3nc(-c4c(O)cccc4F)c(F)cc23)[C@@H](C)C1` [sotorasib, reference compound], for which the 50% inhibitory concentration (IC50) with NCI-H358 cells amounted to 21 nM.
On to `CC#CC(=O)N1CCN(c2cc(O[C@@H](C)[C@@H]3CCCN3C)nc(-c3noc([C@@]4(C)CCCc5sc(N)c(C#N)c54)n3)n2)CC12CC2` [Ia-165], for which the IC50 in assay [1] and in assay [2] (Table 38) was 4 nM in each case. For the same compound, the GI50 in assay [3] is 12.5 nM.
`C=CC(=O)N1CCN(c2cc(O[C@@H](C)[C@@H]3CCCN3C)nc(-c3noc([C@@]4(C)CCCc5sc(N)c(C#N)c54)n3)n2)CC1` [Ia-136]: the IC50 in assay [1] was determined as 0.9 nM; in assay [2] (Table 36), 1.4 nM. Besides, in assay [3], the GI50 was determined as 2 nM.
In the case of `C=CC(=O)N1CCN(c2cc(-c3noc([C@@]4(C)CCCc5sc(N)c(C#N)c54)n3)nc(O[C@@H](C)[C@@H]3CCCN3C)n2)CC12CC2` [Ia-57], the IC50 was 0.9 nM in assay [1] and 1.5 nM in assay [2] (Table 36). For the same compound, the GI50 in assay [3] was 5.9 nM.
Take `C=CC(=O)N1CC[C@H](Oc2cc(O[C@@H](C)[C@@H]3CCCN3C)nc(-c3noc([C@@]4(C)CCCc5sc(N)c(C#N)c54)n3)c2)C1` [Ia-82]: the IC50 turned out to be 7.7 nM in assay [1] and 2 nM in assay [2] (Table 36). In addition, in assay [3], the GI50 was found to be 17.3 nM.
For `C=CC(=O)N1[C@H](C)CC(Oc2cc(O[C@@H](C)[C@@H]3CCCN3C)nc(-c3noc([C@@]4(C)CCCc5sc(N)c(C#N)c54)n3)c2)C[C@H]1C` (stereo partly shown) [Ia-86], the IC50 worked out at 3.9 nM in assay [1]; 2 nM in assay [2] (Table 36); 13.8 nM in the assay with MiaPaCa-2 cells; 4.67 nM in the assay on NCI-H358 cells; 2.08 nM in the assay with SW837 cells. For the same compound, the GI50 in assay [3] is 7 nM.
With `C=CC(=O)N1CCN(c2cc(-c3noc([C@@]4(C)CCCc5sc(N)c(C#N)c54)n3)nc(O[C@@H](C)[C@@H]3CCCN3C)n2)C[C@H]1C` [Ia-63], the results for the IC50 in assay [1] and in assay [2] (Table 36) were 10.9 nM and 2.6 nM, respectively. In addition, the GI50 in assay [3] came to 15 nM.
As to `C=CC(=O)N1CCN(c2cc(-c3noc([C@@]4(C)CCCc5sc(N)c(C#N)c54)n3)nc(O[C@@H](C)[C@@H]3CCCN3C)n2)[C@@H](C)C1` [Ia-54], the IC50 was found to be 2.2 nM in assay [1]; 1.6 nM in assay [2] (Table 36); 2.22 nM in the assay with MiaPaCa-2 cells; 1.34 nM in the assay on NCI-H358 cells; 2.25 nM with SW837 cells. The GI50 in assay [3] turned out to be 4.3 nM.
`C=CC(=O)N1CCN(c2cc(-c3noc([C@@]4(C)CCCc5sc(N)c(C#N)c54)n3)nc(O[C@@H](C)[C@@H]3CCCN3C)n2)CC1` [Ia-46]: the IC50 in assay [1] is 2.1 nM; in assay [2] (Table 36) it was 1.7 nM; with MiaPaCa-2 cells, 3 nM; in the assay with NCI-H358 cells, 0.95 nM; in the assay on SW837 cells it was below 1 nM. Also, the GI50 in assay [3] is 4.4 nM.
As for `C=CC(=O)N1CCN(c2cc(-c3noc([C@@]4(C)CCCc5sc(N)c(C#N)c54)n3)nc(OC3CCC4CCN(C)C43)n2)CC1` (stereo partly shown) [Ia-48], the IC50 in assay [1] came out at 21.3 nM; in assay [2] (Table 36), 8 nM. Besides, the GI50 in assay [3] is 97.6 nM.
As for `C=CC(=O)N1CCN(c2cc(O[C@@H](C)[C@@H]3CCCN3C)nc(-c3noc([C@@]4(C)CCCc5sc(N)c(C#N)c54)n3)n2)CC12CC2` [Ia-77], the IC50 in assay [1] was found to be 2.6 nM; in assay [2] (Table 36) it was 2 nM; in the assay with MiaPaCa-2 cells, 13.3 nM; with NCI-H358 cells it was 4.2 nM; in the assay with SW837 cells it was 4.11 nM. For the same compound, the GI50 in assay [3] was 6.9 nM.
On to `C=CC(=O)N1CCN(c2cc(-c3noc([C@@]4(C)CCCc5sc(N)c(C#N)c54)n3)nc(O[C@@H](C)[C@@H]3CCCN3C)n2)C[C@@H]1C` [Ia-61], for which the half-maximal inhibitory concentration (IC50) in assay [1] was 1.3 nM; in assay [2] (Table 36) it was 1.6 nM; with MiaPaCa-2 cells, 4.23 nM; in the assay with NCI-H358 cells, 0.67 nM; in the assay with SW837 cells, 0.63 nM. Besides, the GI50 in assay [3] was determined as 2.3 nM.
Turning to `C=CC(=O)N1CCN(c2cc(-c3noc([C@@]4(C)CCCc5sc(N)c(C#N)c54)n3)nc(O[C@@H](C)[C@@H]3CCCN3C)n2)C(C)C1C` (stereo partly shown) [Ia-53], the IC50 was 3.1 nM in assay [1] and 1.8 nM in assay [2] (Table 36). Also, the GI50 in assay [3] was found to be 4.3 nM.
As for `C=CC(=O)N1CCN(c2cc(-c3noc([C@@]4(C)CCCc5sc(N)c(C#N)c54)n3)nc(O[C@@H](C)[C@@H]3CC[C@H](C)N3C)n2)CC1` [Ia-137], the figures for the IC50 in assay [1] and in assay [2] (Table 36) were 0.7 nM and 1.8 nM, respectively. In assay [3], the GI50 was found to be 0.5 nM.
`C=CC(=O)N1CC[C@H](C)N(c2cc(-c3noc([C@@]4(C)CCCc5sc(N)c(C#N)c54)n3)nc(O[C@@H](C)[C@@H]3CCCN3C)n2)CC1` [Ia-55]: the IC50 worked out at 9.8 nM in assay [1] and 2 nM in assay [2] (Table 36). Besides, the GI50 in assay [3] amounted to 24.2 nM.
Regarding `C=CC(=O)N1CC[C@@H](Oc2cc(O[C@@H](C)[C@@H]3CCCN3C)nc(-c3noc([C@@]4(C)CCCc5sc(N)c(C#N)c54)n3)c2)C1` [Ia-81], the IC50 came out at 1.7 nM in assay [1] and 1.6 nM in assay [2] (Table 36). The GI50 in assay [3] turned out to be 1.9 nM.
Regarding `C=CC(=O)N1CCN(c2cc(-c3noc([C@@]4(C)CCCc5sc(N)c(C#N)c54)n3)nc(OC3C4CC5CN(C)C3C5C4)n2)CC1` (stereo partly shown) [Ia-50], the IC50 in assay [1] came to 121 nM; in assay [2] (Table 36), 11 nM. Besides, in assay [3], the GI50 was 496 nM.
